# US9101138B2, “Methods and compositions utilizing lactams derived from camphor, verbenone or cat thyme oil for repelling blood-sucking and biting insects, ticks and mites” (The United States of America, as represented by the …, priority 2013, dated 2015)
# Tests used:
# Assay type in all cases: in vivo
# [1] = tested on: Sand Fly (Phlebotomus papatasi); test: Sand fly blood-feeding assay for testing repellents and feeding deterrents; settings: 2 h; for Mean % Feeding / Mean % Inhibition: n = 3; for effectiveness (comparison between compounds): sand fly blood feeding
# From the text: Sand Fly (Phlebotomus papatasi) blood-feeding assay for testing repellents and feeding deterrents: A pig intestine-based membrane feeing system (Watnaporn, D., et al., Proceedings of VIIIth Sir Dorabjee Tata International Symposium: Arthropod born viral infections-Current status and research, Pages 417-424, 2008) has been used for blood-feeding of female sand flies in colony maintenance. The same technique has been used for testing repellency and antifeeding effects of several new compounds. A circular area of the fabric mesh on top of the test container that matches the size of the glass feeder was treated with the test compound by applying the test solution using a Q-tip. After a group of 30 females and 15 males was placed into the test container, a glass feeder filled with cow blood was placed on top of the treated area in the center of the fabric mesh that was secured on top of the container. Sand flies were allowed to feed for 2 h before the number of blood-fed females was in each feeding container counted.
# Female sand flies in the untreated control achieved a 32% to 61% blood feeding rate during the test period (2 h) when a group of 30 females and 15 males was placed in a feeding pot and fed through a fine mesh screen using an artificial membrane feeding system (Table 1 [?]).
# [2] = tested on: Aedes aegypti; test: Free choice assay against mosquitoes (feeding deterrence assay in glove box); settings: treated membrane over human blood, 20 min; for EC50: median effective dose to repel 50% of mosquitoes
# Description: Free Choice Assay against mosquitoes (compact repellency): Mosquitoes used were nulliparous female Aedes aegypti (Red eye Liverpool strain). They were laboratory-reared and maintained at 27° C. and 80% RH under a photoperiod of 12:12 (L:D) h by using standard mosquito rearing procedures (Rutledge, C. C., et al., J. Med. Entomol., 14: 536-541 (1978)). Larvae were fed a diet of ground tropical fish flakes and adults were fed a 10% sucrose solution. Adult female mosquitoes used for experimentation were between 5 and 15 d old and starved (provided only water) for 24 h before testing. The test system consisted of a mosquito blood-feeder, a constant-temperature water circulator (to maintain the temperature of the blood at 37° C.) and a specially designed cage. The mosquito blood-feeder contained five circular blood reservoirs, each of which was filled with outdated human blood titrated with adenosine triphosphate. The wells were then covered with sausage membrane and secured using high vacuum grease. Absolute ethanol was used as a solvent and diluent for candidate repellents. Each diluted repellent solution was then randomly applied to the membrane surface at concentrations of 0.02, 0.04, 0.08 and 0.16 mg/cm^2. A separate membrane covered well served as a control. 250 mosquitoes were exposed to the treated membranes on the blood reservoirs ad libitum by opening the sliding door in the floor of the test cage. The number of mosquitoes feeding on each well was counted and noted at two-minute intervals for 20 minutes using the total number of feeding mosquitoes as a response. Each test was replicated for a minimum of four times to obtain a statistically valid sample size for analysis. The median effective dose to repel 50% of the mosquito test population was then calculated by the method of Goldstein (Goldstein, A., et al., 1974. Principles of Drug Action: The Basis of Pharmacology, 2nd ed., John Wiley and Sons, New York, N.Y., 854 p) (chemical sensitivity levels calculated from the dose-response regression equation) for single curves with graded responses. Significant differences were then determined by comparing the 95% confidence level among effective doses.
# [3] = tested on: Aedes aegypti females; test: Feeding deterrency assay utilising K&D module; settings: 25 nmol\cm^2
# Description: Feeding Deterrency assay utilising K&D module (Klun, J. A., and M. Debboun, J. Med. Entomol., 37: 177-181 (2000); Klun, J. A., et al., 40: 293-299 (2003)): Test compounds were bioassayed for their feeding deterrency against Aedes aegypti females in K&D module assay. […] Feeding deterrency was evaluated as proportion feeding. Ethanol was used as control.
# [4] = tested on: adult lone star ticks, Amblyomma americanum; test: Tick repellency: vertical filter paper bioassay; settings: for % repelled: ticks exposed 10-15 minutes after application
# Description: Tick repellency: Vertical filter paper bioassay against adult lone star ticks, Amblyomma americanum, and nymphs was conducted with selected lactams, lactones and ketones. Adult ticks were exposed 10-15 minutes after application of the candidate compounds. Repellency was measured in % repelled from the treated surface at various concentrations.
Compound,Mean % Feeding ([1]; concentration 0.001%) [%],Mean % Inhibition ([1]; concentration 0.001%) [%],Mean % Feeding ([1]; concentration 0.01%) [%],Mean % Inhibition ([1]; concentration 0.01%) [%],EC50 [2] [mg/cm^2],EC95 [2] [mg/cm^2],% not biting [3] [%],mean bites\6 [3],total Bites\120 [3],% repelled ([4]; Conc. 125 ug) [%],% repelled ([4]; Conc. 500 ug) [%],% repelled ([4]; Conc. 2000 ug) [%],further results
"CCCN1CC2CCC(C)(C1=O)C2(C)C (centres unmarked) [Compound 1a, N-propyl camphor lactam]",1.1,98.5,0.0,100.0,0.0282,0.102,96,0.25,5,26.7,100,93.3,Mean % Feeding ([1]; concentration 0.00001%): 5.6%; Mean % Inhibition ([1]; concentration 0.00001%): 92.4%; Mean % Feeding ([1]; concentration 0.0001%): 6.7%; Mean % Inhibition ([1]; concentration 0.0001%): 90.9%
"CCN(CC)C(=O)c1cccc(C)c1 [DEET, N,N-diethyl-m-toluamide, reference compound]",,,,,,,94,0.4,8,5,68.3,95.7,repellency ([4]; at 125 and 64 ug concentrations): failed to repel ticks
"C=C1COC(=O)[C@H]2[C@@H]1CC[C@@H]2C [Compound 5, Dolicholactone (C)]",,,,,,,89,0.7,14,,,,
"C=C1C(=O)OC[C@H]2[C@@H]1CC[C@@H]2C [Compound 6, Dolicho lactone (D)]",,,,,,,87,0.8,16,,,,
N-propyl dihydro verbenone lactam [Compound 2a],,,,,0.0561,0.264,92,0.5,10,,,,
"CC(C)=CCCC(C)C1C=CC(=O)CC1 (centres unmarked) [Compound 7a, 4-(1,5-Dimethylhex-4-enyl)cyclohex-2-en-1-one]",,,,,,,,,,73.3,96.7,82.5,% repelled ([4]; Conc. 31 ug): 20%; % repelled ([4]; Conc. 63 ug): 53.3%; lowest concentration at which adult ticks were repelled ([4]; filter paper bioassay): 31 µg
"C=C1CN(CCC)C(=O)C2C(C)CCC12 (centres unmarked) [Compound 3a, N-propyl dolicho-C-lactam]",25.6,65.1,17.8,75.8,0.0317,0.117,98,0.15,3,83.6,100,100,Mean % Feeding ([1]; concentration 0.02%): 8.9%; Mean % Inhibition ([1]; concentration 0.02%): 87.9%; Mean % Feeding ([1]; concentration 0.04%): 5.6%; Mean % Inhibition ([1]; concentration 0.04%): 92.4%; effectiveness (comparison between compounds) [1]: more effective than dolicholactam; % repelled ([4]; Conc. 63 ug): 20%
"CC12CCC(CNC1=O)C2(C)C (centres unmarked) [Compound 1, Camphor lactam]",2.2,97.0,0.0,100.0,0.0355,0.166,91,0.55,11,26.7,66.7,73.3,Mean % Feeding ([1]; concentration 0.00001%): 6.7%; Mean % Inhibition ([1]; concentration 0.00001%): 90.9%; Mean % Feeding ([1]; concentration 0.0001%): 3.3%; Mean % Inhibition ([1]; concentration 0.0001%): 95.5%
"C=C1CNC(=O)C2C(C)CCC12 (centres unmarked) [Compound 3, Dolicho (C) lactam]",,,,,0.0322,0.173,92,0.5,10,,,,effectiveness (comparison between compounds) [1]: more effective than dolicholactone
